Measurements as given in US20230413857A1, “COMPOSITIONS OF MICROORGANISMS AND METHODS OF USING SAME” (The State of Israel, Ministry of Agriculture & Rural …, priority 2020, published 2023).

Assays:
Pythium aphanidermatum = assay: Paper disk in-vitro bioactivity assay on PDA plates; format: cell-based; details: PDA plate
Achlya bisexualis = assay: as above; format: cell-based; details: PDA plate
Phytophthora infestans = format: cell-based; details: 200 μg on a paper disk, PDA plate
Photobacterium damselae = format: cell-based; details: 200 μg
Streptococcus iniae = format: cell-based; details: 200 μg
Aeromonas salmonicida = format: cell-based; details: 200 μg
S. parasitica mycelia = assay: Compound bioassays of 8-Nonenoic acid in liquid and solid media; format: cell-based, Saprolegnia parasitica; details: for Concentration giving full inhibition of S. parasitica growth: 19° C., 3 days
Procedure: The inhibition activity of the compound 8-Nonenoic acid was examined in both liquid and solid media. For liquid assay, a plug of PDA harboring the S. parasitica mycelia was introduced to 1 ml of sterile double distilled water (DDW) with 10 μl of potato dextrose broth (PDB) and varying concentrations of 8-Nonenoic acid (0, 0.1, 0.5, 1, 2.5, 5, 7.5, 10, 20 μg/ml) in 48 well plate and incubated at 19° C. for 3 days. For solid assay, a plug of PDA harboring the S. parasitica mycelia was introduced to 50 mm PDA petri plates with varying concentrations of 8-Nonenoic acid (as described above) and incubated at 19° C. for 3 days. For both liquid and solid, mycelium growth radios was measured and S. parasitica plugs viability were evaluated by transferring them to fresh PDB/PDA and observing the growth developed within 3 days. All experiments were performed in triplicates.

Saprolegnia parasitica = assay: 8-Nonenoic acid vs. Saprolegnia parasitica in Tilapia eggs bioassay test; format: in vivo, Tilapia (Oreochromis mossambicus) eggs; details: S. parasitica plugs and 10 μg/ml, one week, 26° C.
Procedure: Tilapia (Oreochromis mossambicus) eggs, 3 days post fertilization, were collected from the hatchery at the department of fisheries in ARO the Volcani Center and brought to the lab. Eggs were rinsed with aquarium water. Eggs were introduced to 100 ml flasks (25 ml water in each flask), 6 eggs for each flask. Eggs were introduced with Saprolegnia parasitica plugs in the flask or with Saprolegnia parasitica plugs and 10 μg/ml 8-Nonenoic acid. Control eggs were not treated and/or supplemented. Flasks were incubated on a shaker under controlled conditions: 26° C., 95 rpm, and day light for a week.

In the case of `CC(C)(c1ccccc1)c1ccc(O)cc1` [4-Cumylphenol], the “Inhibition of the oomycete mycelium” value (Pythium aphanidermatum; 200 μg on a paper disk) is reported as “showed inhibition”, the “Inhibition of the oomycete mycelium” value (Achlya bisexualis; 200 μg on a paper disk) is reported as “showed inhibition” and the “Inhibition of the oomycete mycelium” value (Phytophthora infestans) is reported as “showed inhibition”. For the same molecule, the Inhibitory activity (Photobacterium damselae) was “showed inhibitory activity”, the Inhibitory activity (Streptococcus iniae) was “showed inhibitory activity” and the Inhibitory activity (Aeromonas salmonicida) was “showed inhibitory activity”.

In the case of `C=CCCCCCCC(=O)O` [8-Nonenoic acid], the “Inhibition of S. parasitica growth” value (S. parasitica mycelia; 0.1 g/ml in both water and agar) is reported as “No inhibition”, the “Inhibition of S. parasitica growth” value (S. parasitica mycelia; 0.5-2.5 μg/ml, agar phase) is reported as “no inhibition” and the “Concentration at which the growth radius decreased” value (S. parasitica mycelia; in agar) is reported as ≥ 5 µg/mL. The “Concentration giving full inhibition of S. parasitica growth” value (S. parasitica mycelia; in agar (solid assay)) was 20 µg/mL, the “Concentration giving full inhibition of S. parasitica growth” value (S. parasitica mycelia; in water (liquid assay)) was 2.5 µg/mL and the “Ability to inhibit S. parasitica growth (screen of compounds identified from ABp5)” value (S. parasitica mycelia; purchased GC/MS-identified compounds, FIG. 13A) was “strong ability to inhibit”. The “Viability of fully inhibited S. parasitica plugs” value (S. parasitica mycelia; transferred to a new plate) was “complete loss of viability”, the “Survival of Tilapia eggs” value (Saprolegnia parasitica) was “did survive” and the “Inhibition of the oomycote mycelium” value (Pythium aphanidermatum; 100 μg on a paper disk) was “showed inhibition”. The “Inhibition of the oomycote mycelium” value (Achlya bisexualis; 100 μg on a paper disk) was “showed inhibition”.
